Where a name gives a salt, the structure may show the parent alone.
Experiments:
Conditions in all cases: exposure time: 72 h
E13 [1] = patient-derived glioblastoma stem cells of classical subtype; assay: surviving fraction (nuclei count normalised to DMSO); higher = more cells surviving (less toxic)
E21 [2] = patient-derived glioblastoma stem cells of mesenchymal subtype; assay: as above
E28 [3] = patient-derived glioblastoma stem cells of classical subtype; assay: as above
E31 [4] = patient-derived glioblastoma stem cells of proneural subtype; assay: as above
E34 [5] = patient-derived glioblastoma stem cells of proneural subtype; assay: as above
E57 [6] = patient-derived glioblastoma stem cells of mesenchymal subtype; assay: as above
FT3469 [7] = normal neural stem cell line; assay: as above
E13 [8] = assay: phenotypic distance (Euclidean, principal components) from DMSO controls (arbitrary units); higher = stronger morphological change
E21 [9] = assay: as above
E28 [10] = assay: as above
E31 [11] = assay: as above
E34 [12] = assay: as above
E57 [13] = assay: as above
FT3469 [14] = assay: as above
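Wherever phenotypic distance (Euclidean, principal components) from DMSO controls is given: cell Painting imaging in 384-well plates, CellProfiler features reduced to at least 20 principal components, Euclidean distance versus same-plate DMSO vehicle wells (0.1% v/v), median over six images per well.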
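Wherever surviving fraction (nuclei count normalised to DMSO) is given: nuclei counted by high-content imaging of Hoechst-stained cells in laminin-coated 384-well plates, relative to 0.1% DMSO vehicle wells, with staurosporine as cell-death control.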

CN1[C@@H]2CC[C@H]1CC(OC(=O)c1c[nH]c3ccccc13)C2 (stereo partly drawn) [3-Tropanyl-indole-3-carboxylate hydrochloride]
Conditions | phenotypic distance | surviving fraction
E13 [1], 4.1 nM | – | 1.02
E13 [1], 12.3 nM | – | 0.939
E13 [1], 37 nM | – | 0.913
E13 [1], 111.1 nM | – | 0.975
E13 [1], 333.3 nM | – | 0.828
E13 [1], 1000 nM | – | 0.931
E13 [1], 3000 nM | – | 0.699
E13 [8], 4.1 nM | 0.681 | –
E13 [8], 12.3 nM | 1.03 | –
E13 [8], 37 nM | 0.87 | –
E13 [8], 111.1 nM | 0.726 | –
E13 [8], 333.3 nM | 0.624 | –
E13 [8], 1000 nM | 1.01 | –
E13 [8], 3000 nM | 1.66 | –
E21 [2], 4.1 nM | – | 0.945
E21 [2], 12.3 nM | – | 0.965
E21 [2], 37 nM | – | 0.912
E21 [2], 111.1 nM | – | 1
E21 [2], 333.3 nM | – | 0.935
E21 [2], 1000 nM | – | 0.929
E21 [2], 3000 nM | – | 0.821
E21 [9], 4.1 nM | 0.866 | –
E21 [9], 12.3 nM | 0.871 | –
E21 [9], 37 nM | 0.74 | –
E21 [9], 111.1 nM | 0.815 | –
E21 [9], 333.3 nM | 0.781 | –
E21 [9], 1000 nM | 0.853 | –
E21 [9], 3000 nM | 1.33 | –
E28 [3], 4.1 nM | – | 1.25
E28 [3], 12.3 nM | – | 0.858
E28 [3], 37 nM | – | 1.06
E28 [3], 111.1 nM | – | 0.728
E28 [3], 333.3 nM | – | 0.943
E28 [3], 1000 nM | – | 0.894
E28 [3], 3000 nM | – | 0.734
E28 [10], 4.1 nM | 1.03 | –
E28 [10], 12.3 nM | 0.793 | –
E28 [10], 37 nM | 0.737 | –
E28 [10], 111.1 nM | 0.922 | –
E28 [10], 333.3 nM | 0.691 | –
E28 [10], 1000 nM | 0.845 | –
E28 [10], 3000 nM | 1.24 | –
E31 [4], 4.1 nM | – | 0.893
E31 [4], 12.3 nM | – | 0.975
E31 [4], 37 nM | – | 0.905
E31 [4], 111.1 nM | – | 0.978
E31 [4], 333.3 nM | – | 1.17
E31 [4], 1000 nM | – | 0.945
E31 [4], 3000 nM | – | 0.906
E31 [11], 4.1 nM | 0.406 | –
E31 [11], 12.3 nM | 0.329 | –
E31 [11], 37 nM | 0.778 | –
E31 [11], 111.1 nM | 0.924 | –
E31 [11], 333.3 nM | 1.07 | –
E31 [11], 1000 nM | 0.762 | –
E31 [11], 3000 nM | 0.758 | –
E34 [5], 4.1 nM | – | 0.923
E34 [5], 12.3 nM | – | 0.963
E34 [5], 37 nM | – | 1.2
E34 [5], 111.1 nM | – | 0.942
E34 [5], 333.3 nM | – | 0.904
E34 [5], 1000 nM | – | 0.885
E34 [5], 3000 nM | – | 0.9
E34 [12], 4.1 nM | 1.09 | –
E34 [12], 12.3 nM | 0.577 | –
E34 [12], 37 nM | 0.765 | –
E34 [12], 111.1 nM | 1.86 | –
E34 [12], 333.3 nM | 0.741 | –
E34 [12], 1000 nM | 1.59 | –
E34 [12], 3000 nM | 1.13 | –
E57 [6], 4.1 nM | – | 0.904
E57 [6], 12.3 nM | – | 0.959
E57 [6], 37 nM | – | 1.02
E57 [6], 111.1 nM | – | 1.02
E57 [6], 333.3 nM | – | 1.02
E57 [6], 1000 nM | – | 1.04
E57 [6], 3000 nM | – | 0.94
E57 [13], 4.1 nM | 0.753 | –
E57 [13], 12.3 nM | 0.699 | –
E57 [13], 37 nM | 0.615 | –
E57 [13], 111.1 nM | 0.914 | –
E57 [13], 333.3 nM | 0.614 | –
E57 [13], 1000 nM | 1.06 | –
E57 [13], 3000 nM | 1.1 | –
FT3469 [7], 4.1 nM | – | 1.11
FT3469 [7], 12.3 nM | – | 0.924
FT3469 [7], 37 nM | – | 1.07
FT3469 [7], 111.1 nM | – | 1.06
FT3469 [7], 333.3 nM | – | 0.843
FT3469 [7], 1000 nM | – | 0.927
FT3469 [7], 3000 nM | – | 0.855
FT3469 [14], 4.1 nM | 0.942 | –
FT3469 [14], 12.3 nM | 0.464 | –
FT3469 [14], 37 nM | 2.87 | –
FT3469 [14], 111.1 nM | 0.576 | –
FT3469 [14], 333.3 nM | 0.57 | –
FT3469 [14], 1000 nM | 0.775 | –
FT3469 [14], 3000 nM | 0.616 | –

— the supplement of paper PMC13207355
